This note sets out measurements from US20220304941A1, “COMPOSITION FOR PREVENTING OR TREATING ORAL DISEASES” (TECOZYME INC, priority 2019, published 2022).

A value given as a limit tells only on which side of the number the result lay.

In one data set the test system is human fibroblasts. The experiment in a line: Cytotoxicity test: culture viability of human fibroblasts (Cell Counting Kit-8). The format is cell-based. The settings on record: 48 hours treatment, FIG. 1. How it is done: First, to examine the biotoxicity of 1,2,3-butanetriol, culture survival experiments of human fibroblasts according to the concentration change of 1,2,3-butanetriol were conducted.
The initial seeding density was 5000 cells/well based on 96 wells, and the culture conditions were as follows:
Dulbecco's Modified Eagle Medium (DMEM)+Fetal Bovine Serum (FBS) 10%; 37° C., 5% CO2; and 12 hours after seeding, 1,2,3-butanetriol was treated at different concentrations to determine cytotoxicity, and after 48 hours of 1,2,3-butanetriol treatment, Dojindo Cell Counting Kit-8 was dispensed at a rate of 10 μl per well and incubated at 37° C. for 2 hours, then cell viability was measured at 450 nm Absorbance.
FIG. 1 is a graph illustrating the culture viability of human fibroblasts according to the concentration change of 1, 2,3-butanetriol, and the horizontal axis of FIG. 1 indicates the concentration of the treated 1,2,3-butanetriol in an mM unit.

The test system of data set [1] is bacteria in plaque (species of Table 1). Nature of the data set: Antibacterial test of 1,2,3-butanetriol: gDNA extraction and PCR per bacterial species. The format is cell-based, oral bacteria. The conditions noted are these: PCR of gDNA after butanetriol treatment, FIG. 3. The text has this:
From the above cultured strain, gDNA was extracted, and the bacteria were identified through PCR. [table] Separately from the absorption rate measurement, gDNA was extracted from the well microplate after treatment with butanetriol, and the results identified by PCR are shown in FIG. 3.

The test system of another data set is bacteria in plaque. Nature of the data set: Antibacterial test of 1,2,3-butanetriol: growth of cultured plaque bacteria, absorption at 600 nm. The class given is cell-based, oral bacteria. The conditions noted are these: FIG. 2. The method, then:
Subsequently, to examine the effect of inhibiting bacterial activity in plaque, bacterial strains were prepared as follows. First, plaque was collected from three research participants, and was cultured in a BHI medium (Bovine Heart Infusion 4 g/160 ml distilled water-DDW) with 1 wt. % sucrose added for 24 hours. From the above cultured strain, gDNA was extracted, and the bacteria were identified through PCR. BHI medium (Bovine Heart Infusion 4 g/160 ml distilled water-DDW) with 1wt. % sucrose added was prepared and sterilized in a high-temperature and high-pressure autoclave. Then, 1,2, 3-butanetriol (1,2,3-BT) was dispensed to each concentration, and a 96-well microplate containing 180 μl of the culture solution was prepared. Here, 20 μl of the culture solution in which the bacteria in plaque prepared above was proliferated was dispensed per well. This microplate was placed in a Biotek Synergy 2 microplate reader, the temperature was adjusted to 37° C., and the absorption rate was measured at 600 nm.

Take `CC(O)C(O)CO` (racemic) [1,2,3-butanetriol]: the cell viability entry is reported as “not significantly reduced” with human fibroblasts (concentration of about 12.5 mM or less) and “about 50%” in the data set with human fibroblasts (concentration of about 25 mM). In addition, in data set [1], the “growth inhibitory effect on each bacterial species” value is reported as “clearly identified”. In addition, the “effect of inhibiting bacterial growth (at least)” value in the data set on bacteria in plaque (12 hours after culturing, compared to no 1,2,3-butanetriol treatment, lowest effect) is “at least 10%”. For the same molecule, in the data set with bacteria in plaque (12 hours after culturing, compared to no 1,2,3-butanetriol treatment, maximum effect), the “effect of inhibiting bacterial growth (maximum)” value was not below 50%. Moreover, the bacterial growth result in the data set on bacteria in plaque (plaque bacteria in BHI medium with 1 wt. % sucrose, 37° C.) was “significantly effectively inhibited”.
